In patent US20060089325A1, “Antisense modulation of PTP1B expression” (priority 2004, published 2006):
Where two headings read alike, the source gives them in different places.

Experiments:
[1] = Metformin combination in ZDF rats: hypoglycemia, AST/ALT, lipids, plasma lactate; type: in vivo, rat; details: after 4 weeks of treatment
Protocol: 500 mg/kg is the maximally effective dose that can be tolerated by these rats.
There was no significant change in AST/ALT, plasma triglyceride or plasma cholesterol levels in any animal group. Because of the risk of lactic acidosis associated with metformin treatment, plasma lactate levels were measured.

[2] = system: Zucker Diabetic Fatty Rats; assay: Combination of ISIS 113715 and metformin in ZDF rats: plasma glucose (Table 18); type: in vivo, rat
Protocol: 500 mg/kg is the maximally effective dose that can be tolerated by these rats. Plasma glucose was measured at week 0 (before treatment) and after weeks 1, 2 and 4 of treatment.

[3] = system: Zucker diabetic fatty (ZDF) rats; assay: ZDF rats, comparison to rosiglitazone and metformin: blood glucose, HbA1c, meal tolerance, body weight; type: in vivo, rat; details: for HbA1c: end of study (5 weeks), saline ZDF 9.2%, lean 5.5
Protocol: A saline treated group of lean rats was also included in the study. Treatment with all drugs was initiated before the rats became frankly diabetic, which occurs at about 8 weeks of age. Plasma glucose levels were measured 3 and 5 weeks after treatment initiation. Body weight was measured once every week; in addition, HbA1c levels were measured at the end of the study by HPLC. A meal tolerance test was also performed after 4 weeks of treatment.
At the end of 5 weeks, some rats were sacrificed and the liver and epididymal fat pads were removed. The rest of the animals (n=4/group) were examined for changes in plasma glucose levels after cessation of treatment. Glucose measurements during the recovery phase were made 10 days and 5 weeks after stopping treatment. Tissue extracts were subjected to Western blot analysis to measure changes in PTP1B protein levels.

[4] = system: Zucker diabetic fatty (ZDF) rats; assay: as above; type: in vivo, rat; details: 31 day washout after 5 weeks of treatment
[5] = AST/ALT and plasma cholesterol in aged ZDF rats; details: weeks 1, 2, 3, 4 and 5
[6] = system: Zucker diabetic fatty (ZDF) rats; assay: Intraperitoneal glucose tolerance test (IPGTT) in ZDF rats; type: in vivo, rat; details: for Blood glucose after IPGTT (± SEM) / Insulin excursion after IPGTT (± SEM): 25 mg/kg ip twice weekly
Protocol: (§1) ZDF/GmiCrl-fa/fa (ZDF) male rats were purchased from Charles River Laboratories (Wilmington, Mass., USA). Six week old ZDF male rats were injected intraperitoneally with oligonucleotides at a dose of 25 mg/kg two times per week for four weeks. […] Saline-injected animals also serve as controls.
An intraperitoneal glucose tolerance test (IPGTT) was also performed. Rats received intraperitoneal injections of glucose, and the blood glucose and insulin levels are measured before the glucose challenge and at intervals over 2 hours. The blood glucose levels (in mg/dL) are shown below in Table 1:
The blood glucose levels shown in Table 1 were graphed over time and the area under the curve (AUC) is calculated. A smaller AUC for glucose (smaller blood glucose excursion after glucose challenge) indicates better glucose tolerance. Glucose excursion (AUC) for saline-treated rats was approximately 72,000; for negative control ISIS 141923-treated rats, approximately 80,000, for ISIS 113715-treated rats, approximately 60,000 and for ISIS 106425-treated rats, approximately 63,000.

[7] = system: Zucker diabetic fatty (ZDF) rats; assay: Fed plasma glucose in Zucker diabetic fatty (ZDF) rats; type: in vivo, rat; details: 25 mg/kg ip two times per week
Text: The leptin receptor deficient Zucker diabetic fatty (ZDF) rat is another useful model for the investigation of type 2 diabetes. Diabetes develops spontaneously in these male rats at ages 8-10 weeks, and is associated with hyperphagia, polyuria, polydipsia, and impaired weight gain, symptoms which parallel the clinical symptoms of diabetes (Phillips M S, et al., 1996, Nat Genet 13, 18-19).
as §1

[8] = rat, in vivo
PTP1B protein = PTP1B protein levels in ZDF rats (Western blot); type: in vivo, rat; details: 25 mg/kg ip twice weekly four weeks
Protocol: as §1
PTP1B protein levels were measured by Western blot analysis.

PTP1B = PTP1B protein in HEPG2 cells (Western blot); type: cell-based, human; details: 150 nM, vs no oligo treatment
Protocol: (§2) There is a high degree of homology between PTP1B and T-cell phosphatase (TC-PTPase, PTPN2), particularly in the catalytic domain. This may present problems in design of small molecule drugs specific for PTP1B. […] HEPG2 human hepatocellular liver carcinoma cells (ATCC, Manassas Va.) are routinely maintained in minimum essential medium (Eagle) with 2 mM L-glutamine and Earle's BSS adjusted to contain 1.5 g/L sodium bicarbonate, 0.1 mM non-essential amino acids, and 1.0 mM sodium pyruvate, […]; fetal bovine serum.
(§3) Levels of PTP1B and TC-PTPase protein were measured by Western blot using mouse monoclonal antibodies to PTP1B (AB-1) and TC-PTPase (AB-1) (CalBiochem/Oncogene sciences, EMD Biosciences, Inc., San Diego Calif.), which specifically identified human target proteins and were used at 0.25 ug/ml. Results were expressed as percent of control (no oligo treatment).

TC-PTPase = TC-PTPase protein in HEPG2 cells (Western blot), specificity; type: cell-based, human; details: 150 nM, vs no oligo treatment
Protocol: as §2, §3

[9] = 10 day washout after 5 weeks of treatment
[10] = Week 3 of dosing, ISIS 113715 50 mg/kg/week ip, rosiglitazone 10 mg/kg/day, metformin 800 mg/kg/day orally

## CN(C)C(=N)N=C(N)N [Metformin]
[1]
  Plasma lactate levels: dose-dependent increase in lactate
[2]; ISIS 113715 12.5 mg/kg ip twice a week, metformin 100, 300 or 500 mg/kg per day, four weeks
  Effect on blood glucose over the study (in words): lost over time
[2]; metformin alone 100 mg/kg per day oral gavage, Week 0 (before treatment)
  Plasma glucose mg/dL ± SEM: 256 ± 29 mg/dL
[2]; metformin alone 100 mg/kg per day oral gavage, Week 1
  Plasma glucose mg/dL ± SEM: 428 ± 20 mg/dL
[2]; metformin alone 100 mg/kg per day oral gavage, Week 2
  Plasma glucose mg/dL ± SEM: 504 ± 20 mg/dL
[2]; metformin alone 100 mg/kg per day oral gavage, Week 3
  Plasma glucose mg/dL ± SEM: 494 ± 18 mg/dL
[2]; metformin alone 100 mg/kg per day oral gavage, Week 4
  Plasma glucose mg/dL ± SEM: 393 ± 71 mg/dL
[2]; metformin alone 300 mg/kg per day oral gavage, Week 0 (before treatment)
  Plasma glucose mg/dL ± SEM: 251 ± 27 mg/dL
[2]; metformin alone 300 mg/kg per day oral gavage, Week 1
  Plasma glucose mg/dL ± SEM: 323 ± 33 mg/dL
[2]; metformin alone 300 mg/kg per day oral gavage, Week 2
  Plasma glucose mg/dL ± SEM: 415 ± 29 mg/dL
[2]; metformin alone 300 mg/kg per day oral gavage, Week 3
  Plasma glucose mg/dL ± SEM: 449 ± 11 mg/dL
[2]; metformin alone 300 mg/kg per day oral gavage, Week 4
  Plasma glucose mg/dL ± SEM: 448 ± 42 mg/dL
[2]; metformin alone 500 mg/kg per day oral gavage, Week 0 (before treatment)
  Plasma glucose mg/dL ± SEM: 252 ± 28 mg/dL
[2]; metformin alone 500 mg/kg per day oral gavage, Week 1
  Plasma glucose mg/dL ± SEM: 244 ± 56 mg/dL
[2]; metformin alone 500 mg/kg per day oral gavage, Week 2
  Plasma glucose mg/dL ± SEM: 344 ± 59 mg/dL
[2]; metformin alone 500 mg/kg per day oral gavage, Week 3
  Plasma glucose mg/dL ± SEM: 374 ± 53 mg/dL
[2]; metformin alone 500 mg/kg per day oral gavage, Week 4
  Plasma glucose mg/dL ± SEM: 443 ± 35 mg/dL
[3]; 5 weeks
  Body weight after treatment: remained unchanged
[3]; [9]
  Blood glucose (approx.): ~305 mg/dL
[3]; Pre-treatment
  Blood glucose (approx.): ~135 mg/dL
[3]; [10]
  Blood glucose (approx.): ~180 mg/dL
[3]
  HbA1c: 6.1%
[4]
  Blood glucose (approx.): ~330 mg/dL

## CN(CCOc1ccc(CC2SC(=O)NC2=O)cc1)c1ccccn1 (centres unmarked) [Rosiglitazone]
[3]; [9]
  Blood glucose (approx.): ~260 mg/dL
[3]; Pre-treatment
  Blood glucose (approx.): ~140 mg/dL
[3]; [10]
  Blood glucose (approx.): ~110 mg/dL
[3]
  HbA1c: 5.4%
[5]
  Plasma cholesterol levels: no significant effects
[4]
  Blood glucose (approx.): ~270 mg/dL

## ISIS 141923: CCTTCCCTGAAGGTTCCTCC (SEQ ID NO: 20), six-mismatch control of ISIS 113715, negative oligonucleotide control (chemistry not given here)
[6]; 0 min
  Blood glucose after IPGTT (± SEM): 330 ± 39 mg/dL
  Insulin excursion after IPGTT (± SEM): 2.2 ± .30 ng/mL
[6]; 5 min
  Blood glucose after IPGTT (± SEM): 543 ± 43 mg/dL
  Insulin excursion after IPGTT (± SEM): 2.3 ± .84 ng/mL
[6]; 15 min
  Blood glucose after IPGTT (± SEM): 703 ± 60 mg/dL
  Insulin excursion after IPGTT (± SEM): 4.0 ± .22 ng/mL
[6]; 30 min
  Blood glucose after IPGTT (± SEM): 791 ± 52 mg/dL
  Insulin excursion after IPGTT (± SEM): 4.2 ± .37 ng/mL
[6]; 60 min
  Blood glucose after IPGTT (± SEM): 705 ± 51 mg/dL
  Insulin excursion after IPGTT (± SEM): 2.4 ± .66 ng/mL
[6]; 120 min
  Blood glucose after IPGTT (± SEM): 594 ± 28 mg/dL
  Insulin excursion after IPGTT (± SEM): 1.7 ± .60 ng/mL
[6]; saline approximately 300
  Insulin AUC after IPGTT: ~320
[6]; saline approximately 72,000
  Glucose excursion (AUC) after IPGTT: approximately 80,000
[7]; week 0
  Fed plasma glucose levels: approximately 306±59 mg/dL
[7]; week 1
  Fed plasma glucose levels: ~391 ± 35 mg/dL
[7]; week 2
  Fed plasma glucose levels: ~402 ± 37 mg/dL
[7]; week 3
  Fed plasma glucose levels: ~411 ± 27 mg/dL
[7]; week 4
  Fed plasma glucose levels: ~392 ± 11 mg/dL
[8]
  AST/ALT: no significant effects
  Plasma cholesterol levels: no significant effects
PTP1B protein
  PTP1B protein levels, decrease vs saline-treated animals: 10%
PTP1B
  Reduction of PTP1B protein levels: reduced neither PTP1B nor TC-PTPase levels
TC-PTPase
  Reduction of TC-PTPase levels: reduced neither PTP1B nor TC-PTPase levels
